Assay results as given in EP1707622A1, “USE OF COMPOUNDS THAT REGULATE HDAC6 TUBULIN DEACETYLASE ACTIVITY IN THE PREPARATION OF PHARMACEUTICAL COMPOSITIONS, METHOD OF IDENTIFYING THE AFOR[…], SAID PHARMACEUTICAL COMPOUNDS AND APPLICATIONS THEREOF” (UNIVERSIDAD AUTONOMA DE MADRID CIUDAD UNIVERSITARIA …, priority 2004, dated 2005).
Where a SMILES comes first, the peptide text is derived from it. [ ]: non-standard residue; d: D form. Aoe = N[C@@H](CCCCCC(=O)[C@@H]1CO1)C(=O)O

Tested on: J77 cells
Test: CD3 clustering in the central region of the immunological synapse
Type: cell-based, human
Conditions: J77 cells, relative to cells transfected with the deficient mutant or lymphocytes treated with TSA; Figure 5B

Row | SMILES | percentage of mature synapses
1 | O=C1N[C@@H](Cc2ccccc2)C(=O)N2CCC[C@@H]2C(=O)N[C@@H](CCCCCC(=O)[C@@H]2CO2)C(=O)N[C@H]1Cc1ccccc1 [trapoxin B] (cyclo(FF[dP][Aoe])) | neither trapoxin B nor sodium butyrate modified it in a significant manner
2 | CCCC(=O)[O-].[Na+] [sodium butyrate] | neither trapoxin B nor sodium butyrate modified it in a significant manner
